Assay results published in patent US9687438B2, “Method for enhancing collagen secretion and preventing cutaneous aging using chenopodium formosanum extract” (TCI Co., Ltd., priority 2014, dated 2017).

Columns and labels:
porcine collagen [1] = experiment: Early glycation product (fructosamine) formation; format: biochemical; details: versus untreated glycated collagen control
Protocol: (§1) In order to evaluate the ability to prevent glycation of collagen of the Chenopodium formosanum extract, firstly, porcine collagen (60 mg/mL) and fructose (1.5 M) were respectively prepared in 0.2 M potassium phosphate buffer (pH 7.4, containing 0.06% sodium azide). For each reaction of glycation, 100 μL of porcine collagen, 100 μL of fructose solution, and 100 μL of deionized water were deposited in a 1.5 mL microfuge tube. After incubation, the reacted solutions were stored frozen at −20° C. For determination of collagen-fructose glycation, a glycation inhibitor of aminoguanidine (AG) (Sigma) was used. 100 μL of 3 mM AG solution (prepared in deionized water) was introduced in substitution of the deionized water in each of the reactions described above containing collagen and fructose. Meanwhile, different concentrations of the whole grain (un-dehulled) Chenopodium formosanum extract were also prepared and introduced to the reactions describe above. For determination of the intensity, 100 μL of each reacted solution was withdrawn to a well of a 96-well plate and subjected to intensity determination by a spectrofluorometer (FLx 800, BioTek, Winooski, Vt.) set at 360 nm of excitation and 460 nm of emission.
Amadori product such as fructosamine is formed at the early stage of glycation. […]

porcine collagen [2] = experiment: Intermediate glycation product (α-dicarbonyl compounds) formation; format: biochemical; details: versus untreated glycated collagen control
Protocol: as §1
Along the glycation process, amadori product is transformed into intermediate-product such as α-dicarbonyl compounds. […]

## N=C(N)NN [aminoguanidine]
Porcine collagen [1]
  reduction of relative fructosamine formation: about 8%
Porcine collagen [2]
  reduction of relative α-dicarbonyl compounds formation: practically incapable of suppressing the formation of α-dicarbonyl compounds
